The values that follow come from publication PMC7617969, “Carboxylic Acid Bioisosteres Boost Nurr1 Agonist Selectivity” (Journal of medicinal chemistry, 2025).

In one test the target is T1, DHODH (Homo sapiens, UniProt Q02127).
T1 construct: using an N-terminally truncated recombinant DHODH enzyme as described previously[20]
Briefly: DHODH inhibition colorimetric assay on recombinant human protein. The test is classed as biochemical. The conditions noted are these: recombinant human DHODH, colorimetric; mean ± S.E.M., n ≥ 3; read-out: IC50 (DHODH).

Another test deals with T2, Nur77 (Homo sapiens, UniProt P22736).
T2 construct: expressed in transfected cells; host or cells: HEK293T
Briefly: Gal4-Nur77 hybrid reporter gene assay. The test is classed as cell-based. The method, then:
(§1) NR modulation was determined in Gal4 hybrid reporter gene assays in HEK293T cells (German Collection of Microorganisms and Cell Culture GmbH, DSMZ) using pFR-Luc (Stratagene, La Jolla, CA, USA; reporter), pRL-SV40 (Promega, Madison, WI, USA; internal control) and pFA-CMV-hNR-LBD[47],[48] plasmids coding for the hinge region and ligand binding domain of the canonical isoform of the respective NR. Cells were cultured in Dulbecco’s modified Eagle’s medium (DMEM), high glucose supplemented with 10% fetal calf serum (FCS), sodium pyruvate (1 mM), penicillin (100 U/mL), and streptomycin (100 μg/mL) at 37°C and 5% CO2 and seeded in 96-well plates (3×10^4 cells/well). […] Five hours after transfection, cells were incubated with the test compounds in Opti-MEM supplemented with penicillin (100 U/mL), streptomycin (100 μg/mL) and 0.1% DMSO for 16 h before luciferase activity was measured using the Dual-Glo Luciferase Assay System (Promega) according to the manufacturer’s protocol on a Tecan Spark luminometer (Tecan Deutschland GmbH, Crailsheim, Germany). Firefly luminescence was divided by Renilla luminescence and multiplied by 1000 resulting in relative light units (RLU) to normalize for transfection efficiency and cell growth. […]
Background: Reporter assays use an easily measured gene product as a stand-in for the process of interest.

A further test concerns the target T3, NOR1 (Homo sapiens, UniProt Q92570).
T3 construct: expressed in transfected cells; host or cells: HEK293T
T3 sequence (Q92570 394-623 limits assumed): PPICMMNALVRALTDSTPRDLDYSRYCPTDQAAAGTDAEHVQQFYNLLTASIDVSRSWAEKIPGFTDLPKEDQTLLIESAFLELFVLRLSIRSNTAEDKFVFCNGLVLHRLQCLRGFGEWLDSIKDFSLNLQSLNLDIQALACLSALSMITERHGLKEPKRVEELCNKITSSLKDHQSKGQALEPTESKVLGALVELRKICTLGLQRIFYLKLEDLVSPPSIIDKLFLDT
As to the kind of experiment: Gal4-NOR1 hybrid reporter gene assay. The format is cell-based. As to the method: as §1

The next test deals with T4, recombinant Nurr1 LBD (Homo sapiens, UniProt P43354).
T4 construct: Nurr1 LBD protein (15 μM, expressed as described previously[18]); made in house
As to the kind of experiment: Isothermal titration calorimetry (ITC). The format is binding. The following applies: 25 °C. As to the method: ITC experiments were conducted on an Affinity ITC instrument (TA Instruments, New Castle, DE, USA) at 25 °C with a stirring rate of 75 rpm. Nurr1 LBD protein (15 μM, expressed as described previously[18]) in buffer (20 mM Tris, pH 7.5, 100 mM NaCl, 5% glycerol) containing 5% DMSO was titrated with 32 (100 μM in the same buffer containing […]) in 21 injections (1 × 1 µL and 20 × 4 μL) with an injection interval of 120 s. As control experiments, the test compound was titrated to the buffer, and the buffer was titrated to the Nurr1 LBD protein under otherwise identical conditions. The heats of the compound−protein titration were analyzed using NanoAnalyze software (version 3.11.0, TA Instruments) with independent binding model.
Background: Isothermal titration calorimetry measures the heat released or taken up as one component is titrated into another.

A further test has as its system PPAR. As to the kind of experiment: Gal4 hybrid reporter gene assay, selectivity panel. The test is classed as cell-based, human. The following applies: 1 µM; relative activation compared to reference agonists. The method, then:
(§2) NR modulation was determined in Gal4 hybrid reporter gene assays in HEK293T cells (German Collection of Microorganisms and Cell Culture GmbH, DSMZ) using pFR-Luc (Stratagene, La Jolla, CA, USA; reporter), pRL-SV40 (Promega, Madison, WI, USA; internal control) and pFA-CMV-hNR-LBD[47],[48] plasmids coding for the hinge region and ligand binding domain of the canonical isoform of the respective NR. Cells were cultured in Dulbecco’s modified Eagle’s medium (DMEM), high glucose supplemented with 10% fetal calf serum (FCS), sodium pyruvate (1 mM), penicillin (100 U/mL), and streptomycin (100 μg/mL) at 37°C and 5% CO2 and seeded in 96-well plates (3×10^4 cells/well). After 24 h, medium was changed to Opti-MEM without supplements and cells were transiently transfected using Lipofectamine LTX reagent (Invitrogen, Carlsbad, CA, USA) according to the manufacturer’s protocol. Five hours after transfection, cells were incubated with the test compounds in Opti-MEM supplemented with penicillin (100 U/mL), streptomycin (100 μg/mL) and 0.1% DMSO for 16 h before luciferase activity was measured using the Dual-Glo Luciferase Assay System (Promega) according to the manufacturer’s protocol on a Tecan Spark luminometer (Tecan Deutschland GmbH, Crailsheim, Germany). Firefly luminescence was divided by Renilla luminescence and multiplied by 1000 resulting in relative light units (RLU) to normalize for transfection efficiency and cell growth. Fold activation was obtained by dividing the mean RLU of test compound by the mean RLU of the untreated control. All samples were tested in at least three biologically independent experiments in duplicates. For dose-response curve fitting and calculation of EC50 values, the equation “[Agonist] vs. response -- Variable slope (four parameters)” was used in GraphPad Prism (version 7.00, GraphPad Software, La Jolla, CA, USA).

The subject of the next test is RAR. Briefly: Gal4 hybrid reporter gene assay, selectivity panel. The conditions noted are these: 1 µM; relative activation compared to reference agonists. The format is cell-based, human. The method, then:
as §2

Another test relates to RXR. Briefly: Gal4 hybrid reporter gene assay, selectivity panel. The format is cell-based, human. The following applies: 1 µM; relative activation compared to reference agonists. The method, then: as §2
In test [1] the test system is N27 rat dopaminergic neural cells. Briefly: Nurr1-regulated gene expression (qPCR). The test is classed as cell-based. The conditions noted are these: N27 cells, 0.3, 1 or 3 μM, 21 h, referenced to GAPDH.

T2 sequence (P22736 360-595 limits assumed): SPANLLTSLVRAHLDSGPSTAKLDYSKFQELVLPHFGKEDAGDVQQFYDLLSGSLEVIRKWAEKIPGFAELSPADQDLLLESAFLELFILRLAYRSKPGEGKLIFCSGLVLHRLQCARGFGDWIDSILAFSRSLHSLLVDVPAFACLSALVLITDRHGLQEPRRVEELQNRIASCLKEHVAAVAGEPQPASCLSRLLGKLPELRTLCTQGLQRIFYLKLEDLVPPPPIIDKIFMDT
T1 sequence (Q02127 31-395): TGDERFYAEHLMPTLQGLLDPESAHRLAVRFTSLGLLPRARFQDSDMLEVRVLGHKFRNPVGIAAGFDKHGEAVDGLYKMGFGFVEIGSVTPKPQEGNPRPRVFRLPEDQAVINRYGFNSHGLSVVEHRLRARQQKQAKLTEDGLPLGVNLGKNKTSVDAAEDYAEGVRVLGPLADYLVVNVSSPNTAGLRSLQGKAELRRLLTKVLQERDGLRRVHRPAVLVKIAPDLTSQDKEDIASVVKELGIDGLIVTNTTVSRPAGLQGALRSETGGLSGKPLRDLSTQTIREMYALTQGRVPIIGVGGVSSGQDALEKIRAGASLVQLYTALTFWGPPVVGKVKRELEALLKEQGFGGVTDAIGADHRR
T4 sequence (P43354 360-595 limits assumed): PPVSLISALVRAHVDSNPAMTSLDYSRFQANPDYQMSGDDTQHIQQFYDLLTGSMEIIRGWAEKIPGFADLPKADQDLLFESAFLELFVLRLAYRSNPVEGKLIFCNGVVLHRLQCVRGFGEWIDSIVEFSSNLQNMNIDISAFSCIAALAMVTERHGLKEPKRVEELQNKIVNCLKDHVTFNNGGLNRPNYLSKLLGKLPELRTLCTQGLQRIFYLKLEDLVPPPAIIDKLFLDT

In general, IC50 refers to the point on the concentration scale where inhibition reaches its midpoint. In general, EC50 refers to the concentration giving half of the maximal effect. A higher EC50 goes with weaker potency. What is called Kd is the free concentration of one partner at which half of the binding sites on the other are occupied at equilibrium, for simple one-to-one binding. For the molecule `COc1cccc(-c2ccc(NC(=O)C3=C(c4nn[nH]n4)CCC3)c(F)c2)c1` [compound 32, N-{3-Fluoro-3’-methoxy-[1,1'-biphenyl]-4-yl}-2-(2H-tetrazol-5-yl)cyclopent-1-ene-1-carboxamide], the IC50 at DHODH was 10000 ± 2000 nM. In addition, at Nur77, the EC50 is 160 ± 30 nM and the “fold activation (Nur77)” value came out at 1.9 fold. Besides, on NOR1, the EC50 was 120 ± 10 nM and the “fold activation (NOR1)” value turned out to be 1.8 fold. In addition, the Kd at recombinant Nurr1 LBD stood at 200 nM. In addition, the “activity on PPAR” value in the test on PPAR was “no activity”. Moreover, the “activity on RAR” value in the test with RAR is recorded as “no activity”. In addition, the “activity on RXR” value in the test on RXR is recorded as “no activity”. Moreover, in test [1], the “BDNF mRNA expression” value was “enhanced expression”, the “BIRC5 mRNA expression” value is “robust induction”, the “CCND2 mRNA expression” value was “enhanced expression” and the “CRMP4 mRNA expression” value is listed as “enhanced expression”. In test [1], the “FLRT2 mRNA expression” value is listed as “enhanced expression”, the “SOD2 mRNA expression” value is “robust induction”, the “Sesn3 mRNA expression” value is on record as “robust induction” and the “TH mRNA expression” value is listed as “enhanced the expression”. In addition, in test [1], the “XIAP mRNA expression” value is “robust induction”.
